Reference: patent US9669034B2, “4-aryl-N-phenyl-1,3,5-triazin-2-amines containing a sulfoximine group” (BAYER INTELLECTUAL PROPERTY GMBH, priority 2011, dated 2017)
In brackets after ≈: the same amount, converted by molar mass. Like-named read-outs stand apart in the source and are kept apart here.

How the values were obtained:
CDK9/CycT1 = CDK9/CycT1 (Homo sapiens (Human), UniProt P50750); experiment: CDK9/CycT1 kinase assay (TR-FRET); assay type: biochemical; settings: Method 1
Method in brief: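 TR-FRET read-out of kinase inhibition, with a biotin-Ttds-tagged peptide as substrate. Enzyme: human CDK9 and CycT1, full-length with His tags, produced in insect cells and purified on Ni-NTA.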

CDK2/CycE = CDK2/CycE (Homo sapiens (Human), UniProt P24941); experiment: CDK2/CycE kinase assay (TR-FRET); assay type: biochemical; settings: Method 2
Method in brief: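 TR-FRET measurement of inhibition of phosphorylation of a biotinylated peptide substrate. Enzyme complex consisted of human CDK2 and CycE, each as a GST fusion made in Sf9 cells and purified over glutathione-Sepharose.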

[1] = tested on: HeLa human cervical tumour cells; experiment: Proliferation assay (crystal violet), HeLa; assay type: cell-based; settings: Method 3, read-out: Inhibition of HeLa cell proliferation, IC50
Method in brief: (§1)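 First, plate 3000 (NCI-H460, HeLa), 5000 (HeLa-MaTu-ADR) or 1500 (Caco-2) cells per well; next day, fix and stain a reference plate while the others get fresh medium containing compound at […] with 0.5% DMSO; after 4 days, fix, stain with crystal violet and read at 595 nm.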

[2] = tested on: HeLa-MaTu-ADR, multidrug-resistant human cervical carcinoma cells; experiment: Proliferation assay (crystal violet), HeLa-MaTu-ADR; assay type: cell-based; settings: Homo sapiens, HeLa, Method 3, read-out: Inhibition of HeLa/MaTu/ADR cell proliferation, IC50
Method in brief: as §1

[3] = tested on: NCI-H460, human non-small cell lung carcinoma cells; experiment: Proliferation assay (crystal violet), NCI-H460; assay type: cell-based; settings: Homo sapiens, NCI-H460, NCI-H460 cells, Method 3; read-out: Inhibition of NCI-H460 cell proliferation, IC50
Method in brief: as §1

[4] = tested on: DU145, hormone-independent human prostate carcinoma cells; experiment: Proliferation assay (crystal violet), DU145; assay type: cell-based; settings: Homo sapiens, DU-145, DU145 cells, Method 3; read-out: Inhibition of DU145 cell proliferation, IC50
Method in brief: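 Proliferation of DU145 cells was measured with crystal violet. Cells were fixed with 20 μL 11% glutaric aldehyde for 15 minutes, washed, dried, stained with 100 μL 0.1% crystal violet (pH 3.0), washed again, and the dye was dissolved in 10% acetic acid. Absorbance at 595 nm was normalized to the zero-point plate and untreated cells, and IC50 came from a 4 parameter fit.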

[5] = tested on: Caco-2 human colorectal carcinoma; experiment: Proliferation assay (crystal violet), Caco-2; assay type: cell-based; settings: Homo sapiens, Caco-2, Caco-2 cells, Method 3; read-out: Inhibition of Caco-2 cell proliferation, IC50
Method in brief: as §1

[6] = tested on: B16F10 mouse melanoma cells; experiment: Proliferation assay (crystal violet), B16F10; assay type: cell-based; settings: Mus musculus, B16-F10, B16F10 cells, Method 3; read-out: Inhibition of B16F10 cell proliferation, IC50
Method in brief: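 Proliferation was read out by crystal violet staining. Cells were fixed for 15 minutes at room temperature with 20 μL of 11% glutaric aldehyde, washed three times with water, dried, and stained with 100 μL of 0.1% crystal violet (pH 3.0). After washing and drying, the dye was dissolved in 100 μL of 10% acetic acid and absorbance measured at 595 nm. Values were normalized to the zero-point plate (0%) and untreated cells (100%), and IC50 was obtained by a 4 parameter fit.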

[7] = Equilibrium shake flask solubility assay; assay type: physicochemical; settings: pH 6.5, equilibrium shake flask method; for solubility thermodynamic at 24 h: phosphate buffer, pH 6.5, aqueous buffer, thermodynamic from solid, water
Experimental: 4. Equilibrium Shake Flask Solubility Assay:
The thermodynamic solubility of compounds in water was determined by an equilibrium shake flask method (see for example: E. H. Kerns, L. Di: Drug-like Properties: Concepts, Structure Design and Methods, 276-286, Burlington, Mass., Academic Press, 2008). A saturated solution of the drug was prepared and the solution was mixed for 24 h to ensure that equilibrium was reached. The solution was centrifuged to remove the insoluble fraction and the concentration of the compound in solution was determined using a standard calibration curve.
To prepare the sample, 2 mg solid compound was weighed in a 4 mL glass vial. 1 mL phosphate buffer pH 6.5 was added. The suspension was stirred for 24 hrs at room temperature. The solution was centrifuged afterwards. To prepare the sample for the standard calibration, 2 mg solid sample was dissolved in 30 mL acetonitrile. After sonification the solution was diluted with water to 50 mL. Sample and standards were quantified by HPLC with UV-detection. For each sample two injection volumes (5 and 50 μl) in triplicates were made. Three injection volumes (5 μl, 10 μl and 20 μl) were made for the standard.
Chromatographic Conditions:
The areas of sample- and standard injections as well as the calculation of the solubility value (in mg/l) were determined by using HPLC software (Waters Empower 2 FR).

[8] = target: human carbonic anhydrase-1 (Homo sapiens (Human), UniProt P00915); experiment: Carbonic anhydrase assay, carbonic anhydrase-1; assay type: biochemical; settings: read-out: Inhibition of Carbonic anhydrase-1: IC50
human carbonic anhydrase-1, sequence (P00915 whole entry): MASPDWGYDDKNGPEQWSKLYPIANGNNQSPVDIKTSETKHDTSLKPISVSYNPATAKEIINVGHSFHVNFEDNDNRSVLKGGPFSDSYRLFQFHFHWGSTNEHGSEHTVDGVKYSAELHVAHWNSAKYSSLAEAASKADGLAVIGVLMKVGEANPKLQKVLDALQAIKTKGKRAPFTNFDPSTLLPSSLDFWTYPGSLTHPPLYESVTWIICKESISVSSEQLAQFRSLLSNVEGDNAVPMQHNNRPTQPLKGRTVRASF
Description: (§2) 5. Carbonic Anhydrase Assay
(§3) The principle of the assay is based on the hydrolysis of 4-nitrophenyl acetate by carbonic anhydrases (Pocker & Stone, Biochemistry, 1967, 6, 668), with subsequent photometric determination of the dye product 4-nitrophenolate at 400 nm by means of a 96-channel spectral photometer.
(§4) 2 microL of the test compounds, dissolved in DMSO (100-fold final concentration), in a concentration range of 0.03-10 micromol/L (final), was pipetted as quadruplicates into the wells of a 96-hole microtiter plate. Wells that contained the solvent without test compounds were used as reference values (1. Wells without carbonic anhydrase for correction of the non-enzymatic hydrolysis of the substrate, and 2. Wells with carbonic anhydrase for determining the activity of the non-inhibited enzyme).
(§5) 188 microL of assay buffer (10 millimol/L of Tris/HCl, pH 7.4, 80 millimol/L of NaCl), with or without 3 units/well of carbonic anhydrase-1 [=human carbonic anhydrase-1 (Sigma, #C4396)] in order to determine carbonic anhydrase-1 inhibition or 3 units/well of carbonic anhydrase-2 [=human carbonic anhydrase-2 (Sigma, #C6165)] for measuring carbonic anhydrase-2 inhibition, was pipetted into the wells of the microtiter plate. […] IC50 values were determined by means of a 4 parameter fit.

[9] = target: human carbonic anhydrase-2 (Homo sapiens (Human), UniProt P00918); experiment: Carbonic anhydrase assay, carbonic anhydrase-2; assay type: biochemical; settings: read-out: Inhibition of Carbonic anhydrase-2: IC50
Description: as §2, §3, §4, §5

CDK9/CycT1, sequence (P50750 whole entry): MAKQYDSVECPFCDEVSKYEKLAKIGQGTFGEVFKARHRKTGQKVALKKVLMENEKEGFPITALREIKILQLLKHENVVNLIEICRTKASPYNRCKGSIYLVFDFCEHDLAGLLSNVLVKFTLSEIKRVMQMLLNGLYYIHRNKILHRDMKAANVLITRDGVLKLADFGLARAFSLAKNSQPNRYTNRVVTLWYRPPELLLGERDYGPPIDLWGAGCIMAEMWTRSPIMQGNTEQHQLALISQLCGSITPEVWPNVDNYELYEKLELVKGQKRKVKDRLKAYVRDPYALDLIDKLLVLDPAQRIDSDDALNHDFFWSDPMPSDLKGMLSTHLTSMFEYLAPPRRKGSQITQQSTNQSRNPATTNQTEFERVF
CDK9/CycT1, sequence (O60563 whole entry partner): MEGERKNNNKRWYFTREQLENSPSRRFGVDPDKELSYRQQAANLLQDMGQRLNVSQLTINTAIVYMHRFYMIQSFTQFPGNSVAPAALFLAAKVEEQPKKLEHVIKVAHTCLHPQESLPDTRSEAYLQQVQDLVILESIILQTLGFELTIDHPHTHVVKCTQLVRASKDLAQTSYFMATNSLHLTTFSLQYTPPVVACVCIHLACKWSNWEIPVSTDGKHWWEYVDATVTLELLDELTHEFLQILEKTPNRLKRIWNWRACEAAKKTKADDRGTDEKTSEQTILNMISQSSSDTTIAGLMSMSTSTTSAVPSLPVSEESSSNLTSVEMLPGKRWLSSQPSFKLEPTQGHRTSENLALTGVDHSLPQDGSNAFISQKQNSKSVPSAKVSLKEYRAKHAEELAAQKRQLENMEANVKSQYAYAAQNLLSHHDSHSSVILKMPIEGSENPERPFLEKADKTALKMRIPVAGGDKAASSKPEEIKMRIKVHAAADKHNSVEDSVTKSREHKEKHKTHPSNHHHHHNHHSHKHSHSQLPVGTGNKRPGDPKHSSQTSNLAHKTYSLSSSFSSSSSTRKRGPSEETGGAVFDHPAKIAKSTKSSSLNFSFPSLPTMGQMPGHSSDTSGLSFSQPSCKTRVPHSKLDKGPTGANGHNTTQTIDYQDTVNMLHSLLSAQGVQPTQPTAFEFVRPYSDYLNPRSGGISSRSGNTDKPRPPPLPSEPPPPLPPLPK

IC50 (CDK9/CycT1) [µM]	IC50 (CDK2/CycE) [µM]	IC50 ([1]; Homo sapiens, HeLa) [µM]	IC50 [2] [µM]	IC50 [3] [µM]	IC50 [4] [µM]	IC50 [5] [µM]	IC50 [6] [µM]	solubility thermodynamic at 24 h [7] [mg/mL]	Thermodynamic solubility in water at pH 6.5 [7] [mg/l]	IC50 [8] [µM]	IC50 [9] [µM]	IC50 [1] [µM]	SMILES
0.008	0.82	0.24	0.28	0.26	0.2	0.3	0.15	1.22 (≈ 2870 µM)					CC#CCOc1cc(F)ccc1-c1ncnc(Nc2cccc(CS(C)(=N)=O)c2)n1 (racemic) [Example 73, (rac)-4-[2-(But-2-yn-1-yloxy)-4-fluorophenyl]-N-{3-[(S-methylsulfonimidoyl)methyl]phenyl}-1,3,5-triazin-2-amine]
0.015	1.6	0.47	0.63	0.56	0.48	0.3	0.52	0.256 (≈ 622 µM)					C#CCOc1cc(F)ccc1-c1ncnc(Nc2cccc(CS(C)(=N)=O)c2)n1 (racemic) [Example 77, (rac)-4-[4-Fluoro-2-(prop-2-yn-1-yloxy)phenyl]-N-{3-[(S-methylsulfonimidoyl)methyl]phenyl}-1,3,5-triazin-2-amine]
0.011	1.3	0.38	0.7	0.89	0.73	0.78	0.81	0.884 (≈ 2200 µM)					CCOc1cc(F)ccc1-c1ncnc(Nc2cccc(CS(C)(=N)=O)c2)n1 (racemic) [Example 88, (rac)-4-(2-Ethoxy-4-fluorophenyl)-N-{3-[(S-methylsulfonimidoyl)methyl]phenyl}-1,3,5-triazin-2-amine]
0.007	0.43	0.26	0.19	0.31	0.14	0.35	0.25		126				COc1cc(F)ccc1-c1ncnc(Nc2cccc(CS(C)(=O)=NC#N)c2)n1 (single isomer, unassigned) [Example 50, [(3-{[4-(4-fluoro-2-methoxyphenyl)-1,3,5-triazin-2-yl]amino}benzyl)(methyl)oxido-λ^6-sulfanylidene]cyanamide]

The next lines start with the compound.

SMILES	IC50 (CDK9/CycT1) [µM]	IC50 (CDK2/CycE) [µM]	IC50 ([1]; Homo sapiens, HeLa) [µM]	IC50 [2] [µM]	IC50 [3] [µM]	IC50 [4] [µM]	IC50 [5] [µM]	IC50 [6] [µM]	solubility thermodynamic at 24 h [7] [mg/mL]	Thermodynamic solubility in water at pH 6.5 [7] [mg/l]	IC50 [8] [µM]	IC50 [9] [µM]	IC50 [1] [µM]
COc1cc(F)ccc1-c1ncnc(Nc2cccc(CS(C)(=N)=O)c2)n1 (single isomer, unassigned; (+)) [Example 4, (+)-4-(4-Fluoro-2-methoxyphenyl)-N-{3-[(S-methylsulfonimidoyl)methyl]phenyl}-1,3,5-triazin-2-amine]											> 10	> 10	
CNC(=O)N=S(C)(=O)Cc1cccc(Nc2ncnc(-c3ccc(F)cc3OC)n2)c1 (single isomer, unassigned; (+)) [Example 17, (+)-1-[(3-{[4-(4-Fluoro-2-methoxyphenyl)-1,3,5-triazin-2-yl]amino}benzyl)(methyl)oxido-λ^6-sulfanylidene]-3-methylurea]	0.014	1.2		0.6	0.54	0.58	0.8	0.41		429			0.58
COc1cc(F)ccc1-c1ncnc(Nc2cccc(CS(C)(=N)=O)c2)n1 (single isomer, unassigned; (-)) [Example 3, (−)-4-(4-Fluoro-2-methoxyphenyl)-N-{3-[(S-methylsulfonimidoyl)methyl]phenyl}-1,3,5-triazin-2-amine]									0.601 (≈ 1550 µM)		> 10	> 10	
CNC(=O)N=S(C)(=O)Cc1cccc(Nc2ncnc(-c3ccc(F)cc3OC)n2)c1 (single isomer, unassigned; (-)) [Example 16, (−)-1-[(3-{[4-(4-Fluoro-2-methoxyphenyl)-1,3,5-triazin-2-yl]amino}benzyl)(methyl)oxido-λ^6-sulfanylidene]-3-methylurea]	0.019	1.1	0.95						0.323 (≈ 727 µM)				
